ChEMBL document CHEMBL3779797, “Isoindole-1,3-dione derivatives as RSK2 inhibitors: synthesis, molecular docking simulation and SAR analysis” (Medchemcomm, 2016)

target: Ribosomal protein S6 kinase alpha-2 (Homo sapiens) (UniProt Q15349); experiment: Inhibition of N-terminal His6 tagged full-length human recombinant active RSK2 at 10 uM using S6 peptide after 20 mins by fluorescence assay
Sequence (Q15349 whole entry): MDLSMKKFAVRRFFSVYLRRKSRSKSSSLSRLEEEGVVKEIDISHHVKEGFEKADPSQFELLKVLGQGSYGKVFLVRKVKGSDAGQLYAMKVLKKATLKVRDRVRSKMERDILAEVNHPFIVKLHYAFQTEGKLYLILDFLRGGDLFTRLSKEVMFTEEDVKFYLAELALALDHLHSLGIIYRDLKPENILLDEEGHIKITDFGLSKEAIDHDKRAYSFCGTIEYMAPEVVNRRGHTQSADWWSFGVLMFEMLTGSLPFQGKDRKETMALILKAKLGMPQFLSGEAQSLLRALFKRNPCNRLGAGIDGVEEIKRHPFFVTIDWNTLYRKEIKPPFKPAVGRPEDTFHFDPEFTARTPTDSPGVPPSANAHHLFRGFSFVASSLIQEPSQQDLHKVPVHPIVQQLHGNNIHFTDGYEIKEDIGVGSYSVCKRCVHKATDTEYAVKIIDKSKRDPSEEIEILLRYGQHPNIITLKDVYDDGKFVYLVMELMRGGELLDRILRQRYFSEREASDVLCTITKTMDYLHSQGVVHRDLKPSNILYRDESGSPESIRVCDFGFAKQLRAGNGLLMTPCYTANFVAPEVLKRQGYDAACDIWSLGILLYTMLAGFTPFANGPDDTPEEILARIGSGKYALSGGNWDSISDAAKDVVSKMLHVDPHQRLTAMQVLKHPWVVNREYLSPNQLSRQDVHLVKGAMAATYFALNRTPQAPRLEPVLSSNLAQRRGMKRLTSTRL

inhibition [%] | SMILES
103 | O=C(Nc1ccc2c(c1)C(=O)N(CNc1ccc(N3CCOCC3)cc1)C2=O)c1ccccc1
81 | CCN(CC)c1ccc(NCN2C(=O)c3ccccc3C2=O)c(C)c1
100 | CCOc1ccc(NCN2C(=O)c3ccccc3C2=O)cc1
28.1 | O=C1c2ccccc2C(=O)N1CNc1ccc(OC(F)(F)F)cc1
82 | COc1ccc(NCN2C(=O)c3ccc(NC(=O)c4ccccc4)cc3C2=O)cc1
109 | COc1ccc(NCN2C(=O)c3ccc(N)cc3C2=O)cc1
101 | O=C1c2ccccc2C(=O)N1CNc1ccc(N2CCOCC2)cc1
105 | CCOc1ccc(NCN2C(=O)c3cccc(NC(=O)c4ccccc4)c3C2=O)cc1
46.5 | CC(C)c1ccc(NCN2C(=O)c3ccccc3C2=O)cc1
95.6 | COc1ccc(NCN2C(=O)c3cccc(N)c3C2=O)cc1
43.6 | O=C1c2ccccc2C(=O)N1CNc1ccccc1
87 | CCOc1ccc(NCN2C(=O)c3ccc([N+](=O)[O-])cc3C2=O)cc1
54 | Cc1ccc(NCN2C(=O)c3ccccc3C2=O)cc1
87 | COc1ccc(N(C)CN2C(=O)c3ccccc3C2=O)cc1
8.52 | O=C1c2ccccc2C(=O)N1CNc1ccc(Cl)cc1
35.7 | Cc1ccc(NCN2C(=O)c3ccc([N+](=O)[O-])cc3C2=O)cc1
101 | O=C1c2ccccc2C(=O)N1CNc1ccc(O)cc1
99.5 | COc1ccc(NCN2C(=O)c3cccc(NC(=O)c4ccccc4)c3C2=O)cc1
17.2 | COc1ccc(N(CN2C(=O)c3ccccc3C2=O)C(C)=O)cc1
97.2 | COc1ccc(NCN2C(=O)c3ccccc3C2=O)cc1
69.5 | CCOc1ccc(NCN2C(=O)c3ccc(NC(=O)c4ccccc4)cc3C2=O)cc1
98.2 | Cn1cc(C2=C(c3cn(CCCSC(=N)N)c4ccccc34)C(=O)NC2=O)c2ccccc21 [BISINDOLYLMALEIMIDE IX]
34.8 | COc1ccc(NCN2C(=O)c3ccc(NC(=O)Nc4ccccc4)cc3C2=O)cc1
63 | CCc1ccc(NCN2C(=O)c3ccccc3C2=O)cc1
56.7 | O=C1c2ccccc2C(=O)N1CNc1ccc(F)cc1

system: not listed separately; experiment: Inhibition of RSK2 in rabbit skeletal muscle using KKRNRTLSVA as substrate after 10 mins in presence of [gamma32P]ATP; parameters: species or system Oryctolagus cuniculus

IC50 [nM] | SMILES
50 | CN(C)CCCn1cc(C2=C(c3c[nH]c4ccccc34)C(=O)NC2=O)c2ccccc21 [GF-109203]
3 | Cn1cc(C2=C(c3cn(CCCSC(=N)N)c4ccccc34)C(=O)NC2=O)c2ccccc21 [BISINDOLYLMALEIMIDE IX]
